Measured values: paper PMC12621200, “Giving an Enzyme Scissors: Serotonin Derivatives as Potent Organocatalytic Switches for DNA Repair Enzyme OGG1” (Journal of Medicinal Chemistry, 2025)

Molecular target: T1, OGG1 (Homo sapiens, UniProt O15527)
T1 construct: made in house
Assay: Biochemical fluorescence (fluorophore-quencher) assay of OGG1 incision rate, 8-oxoA substrate
Settings: for AC50 (CI95%) / AC50: concentration giving 50% of the incision rate of OGG1 with APE1 (2 nM) control; for AC50: read-out: AC50 (CI95%); for AC50 (μM): biochemical assay of virtual screening hits (NCI samples), Table S1; call rule not given here

T1 sequence (O15527 whole entry): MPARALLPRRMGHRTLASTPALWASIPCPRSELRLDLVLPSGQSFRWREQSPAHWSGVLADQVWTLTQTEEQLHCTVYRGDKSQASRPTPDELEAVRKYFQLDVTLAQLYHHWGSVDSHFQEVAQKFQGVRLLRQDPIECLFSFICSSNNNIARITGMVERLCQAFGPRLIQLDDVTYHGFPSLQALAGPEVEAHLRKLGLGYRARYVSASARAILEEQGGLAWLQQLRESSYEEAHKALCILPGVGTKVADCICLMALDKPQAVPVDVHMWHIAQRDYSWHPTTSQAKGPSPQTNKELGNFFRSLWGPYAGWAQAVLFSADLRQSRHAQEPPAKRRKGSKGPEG

NCCCc1c(-c2cccnc2)[nH]c2ccc(O)cc12 [Compound 40, 3-(3-Aminopropyl)-2-(pyridin-3-yl)-1H-indol-5-ol] was tested, and the “OGG1 activation, SAR result in words” value was “not tolerated” and the “AC50 (CI95%)” value was “inactive”.
In the case of Nc1cncc(-c2cc3ccccc3[nH]2)c1 [Compound 18], the AC50 is reported as > 100 µM.
For CC(N)Cc1c[nH]c2ccccc12 (stereo not shown) [NSC 97069], the “AC50 (μM)” value was “inactive”.
In the case of CCOC(=O)c1ccc2c(c1)NCc1cccc(OC)c1O2 [NSC 364889], the “AC50 (μM)” value is reported as “inactive”.
With NC(=O)C(O)c1c[nH]c2ccccc12 (stereo not shown) [NSC 128331] the “AC50 (μM)” value was “inactive”.
CCOc1ccccc1C1NC(=O)c2ccccc2N1 (stereo not shown) [NSC 158389] was tested, and the “AC50 (μM)” value was “inactive”.
For NCCc1c(-c2ccncc2)[nH]c2ccc(O)cc12 [Compound 43, 3-(2-Aminoethyl)-2-(pyridin-4-yl)-1H-indol-5-ol], the “OGG1 activation, SAR result in words” value was “lost activity” and the “AC50 (CI95%)” value was “inactive”.
O=C(NCCc1c(-c2ccccc2)[nH]c2ccccc12)C(F)(F)F [NSC 674639] was tested, and the “AC50 (μM)” value was “inactive”.
For NCCc1c(-c2cccnc2)[nH]c2cc(O)ccc12 [Compound 31, 3-(2-Aminoethyl)-2-(pyridin-3-yl)-1H-indol-6-ol], the “AC50 (CI95%)” value was “inactive”.
With NCCc1c(-c2cccnc2)[nH]c2ccc(N)cc12 [Compound 36, 3-(2-Aminoethyl)-2-(pyridin-3-yl)-1H-indol-5-amine] the “OGG1 activation, SAR result in words” value was “not tolerated” and the “AC50 (CI95%)” value was “inactive”.
In the case of Cn1c(-c2cccnc2)c(CCN)c2cc(O)ccc21 [Compound 48, 3-(2-Aminoethyl)-1-methyl-2-(pyridin-3-yl)-1H-indol-5-ol], the “OGG1 activation, SAR result in words” value is reported as “attenuated activity” and the “AC50 (CI95%)” value is reported as “inactive”.
With c1ccc(C2Nc3ccccc3C3OCCCC23)cc1 (stereo not shown) [NSC 645796] the “AC50 (μM)” value was “inactive”.
With Fc1ccc(-c2cc3ccccc3[nH]2)cn1 [Compound 17, 2-(6-Fluoropyridin-3-yl)-1H-indole] the “AC50 (CI95%)” value was “inactive”.
With NCCc1c(-c2cccnc2)[nH]c2ccc(Cl)cc12 [Compound 4, 2-(5-Chloro-2-(pyridin-3-yl)-1H-indol-3-yl)-ethan-1-amine] the “AC50 (CI95%)” value was “inactive”.
With c1cncc(-c2cc3ccccc3o2)c1 [Compound 28, 3-(Benzofuran-2-yl)-pyridine] the AC50 was 4.1 µM.
O=C1Nc2ccccc2C12CCNC2Cc1ccccc1 (stereo not shown) [NSC 643518] was tested, and the “AC50 (μM)” value was “weak”.
c1cncc(-c2cc3ccccc3[nH]2)c1 [Compound 10, 2-(Pyridin-3-yl)-1H-indole] gave an AC50 of 1.7 µM.
In the case of NCCc1c(-c2ccccc2)[nH]c2ccc(O)cc12 [Compound 8, 5-Hydroxy-2-phenyltryptamine], the “OGG1 activation, SAR result in words” value is reported as “showed potency” and the AC50 is reported as 4 µM.
In the case of O=C1Nc2ccccc2C1=NCCc1c[nH]c2ccccc12 [NSC 136042], the “AC50 (μM)” value is reported as “inactive”.
Work on Oc1ccc2[nH]c(-c3cccnc3)cc2c1 [Compound 15, 2-(Pyridin-3-yl)-1H-indol-5-ol] yielded an AC50 of 6 µM.
With O=C1c2ccccc2C(O)N1CCc1c[nH]c2ccccc12 (stereo not shown) [NSC 338155] the “AC50 (μM)” value was “inactive”.
For NCCc1c(-c2cccnc2)[nH]c2cc(F)ccc12 [Compound 35, 2-(6-Fluoro-2-(pyridin-3-yl)-1H-indol-3-yl)-ethan-1-amine], the “OGG1 activation, SAR result in words” value was “tolerated” and the AC50 was 5.3 µM.
Cc1cccc2c(CCN)c(-c3cccnc3)[nH]c12 [Compound 5, 2-(7-Methyl-2-(pyridin-3-yl)-1H-indol-3-yl)-ethan-1-amine] was tested, and the “AC50 (CI95%)” value was “inactive”.
In the case of FC(F)(F)c1nc(Nc2ccccc2)c2[nH]cnc2n1 [NSC 56385], the “AC50 (μM)” value is reported as “inactive”.
In the case of NCCc1c(-c2cncs2)[nH]c2ccc(O)cc12 [Compound 45, 3-(2-Aminoethyl)-2-(thiazol-5-yl)-1H-indol-5-ol], the “OGG1 activation, SAR result in words” value is reported as “slight increase in activity” and the AC50 is reported as 0.4 µM.
With Clc1ccc(-c2cc3ccccc3[nH]2)cn1 [Compound 22, 2-(6-Chloropyridin-3-yl)-1H-indole] the “AC50 (CI95%)” value was “inactive”.
With NCCc1c(-c2ccccn2)[nH]c2ccc(O)cc12 [Compound 42, 3-(2-Aminoethyl)-2-(pyridin-2-yl)-1H-indol-5-ol] the “OGG1 activation, SAR result in words” value was “lost activity” and the “AC50 (CI95%)” value was “inactive”.
In the case of COc1ccccc1N1C(=O)CSC1c1c[nH]c2ccccc12 (stereo not shown) [NSC 655348], the “AC50 (μM)” value is reported as “inactive”.
Cc1[nH]c2ccccc2c(=O)c1CNCc1ccccc1 [NSC 133478] was tested, and the “AC50 (μM)” value was “inactive”.
With O=C1NC(c2ccccc2Cl)Nc2ccccc21 (stereo not shown) [NSC 175633] the “AC50 (μM)” value was “inactive”.
In the case of c1ccc2[nH]c(-c3ccncc3)cc2c1 [Compound 24, (2-Pyridin-4-yl)-1H-indole], the “OGG1 activation, SAR result in words” value is reported as “not tolerated” and the “AC50 (CI95%)” value is reported as “inactive”.
In the case of NCCc1c(-c2cncnc2)[nH]c2ccc(O)cc12 [Compound 44, 3-(2-Aminoethyl)-2-(pyrimidin-5-yl)-1H-indol-5-ol], the “OGG1 activation, SAR result in words” value is reported as “slight increase in activity” and the AC50 is reported as 0.25 µM.
O=C1OC(c2c[nH]c3ccccc23)c2ccccc21 (stereo not shown) [NSC 42087] was tested, and the “AC50 (μM)” value was “inactive”.
For O=C(O)c1cccc(NC(C(=O)c2ccccc2)c2ccccc2)c1 (stereo not shown) [NSC 4232], the “AC50 (μM)” value was “inactive”.
With COc1cc(OC)c(NC(=O)CC2SC(N)=NC2=O)cc1Cl (stereo not shown) [NSC 247010] the “AC50 (μM)” value was “inactive”.
With O=c1cc(Nc2ccc(Cl)c(Cl)c2)[nH]c(=O)[nH]1 [NSC 62573] the “AC50 (μM)” value was “inactive”.
With O=C1CCCCC1C(Nc1ccccc1)c1ccccc1 (stereo not shown) [NSC 123043] the “AC50 (μM)” value was “inactive”.
With NCc1c(-c2cccnc2)[nH]c2ccc(O)cc12 [Compound 39, 3-(Aminomethyl)-2-(pyridin-3-yl)-1H-indol-5-ol] the “OGG1 activation, SAR result in words” value was “not tolerated” and the “AC50 (CI95%)” value was “inactive”.
NCCc1[nH]c2cc(F)c(O)cc2c1-c1cccnc1 [Compound 52, 2-(2-Aminoethyl)-6-fluoro-3-(pyridin-3-yl)-1H-indol-5-ol] was tested, and the “OGG1 activation, SAR result in words” value was “some residual activity” and the AC50 was 8.5 µM.
In the case of NCCc1c(-c2cccnc2)[nH]c2ccc(C(=O)O)cc12 [Compound 37, 3-(2-Aminoethyl)-2-(pyridin-3-yl)-1H-indole-5-carboxylic Acid], the “OGG1 activation, SAR result in words” value is reported as “not tolerated” and the “AC50 (CI95%)” value is reported as “inactive”.
Work on NCCc1[nH]c2ccccc2c1-c1cccnc1 [Compound 50, 2-(3-(Pyridin-3-yl)-1H-indol-2-yl)-ethan-1-amine] yielded an AC50 of 28 µM.
Nc1ccc(-c2cc3ccccc3[nH]2)cn1 [Compound 19, 5-(1H-Indol-2-yl)-pyridin-2-amine] was tested, and the AC50 was 9.3 µM.
With Cl.N[C@@H](Cc1c[nH]c2ccccc12)C(=O)OCc1ccccc1 [NSC 202376] the “AC50 (μM)” value was “inactive”.
For Cc1ccc2c(c1)Nc1ccccc1C(=O)N2 [NSC 202050], the “AC50 (μM)” value was “inactive”.
In the case of NCCc1c(-c2cccnc2)[nH]c2ccc(F)cc12 [Compound 34, 2-(5-Fluoro-2-(pyridin-3-yl)-1H-indol-3-yl)-ethan-1-amine], the “OGG1 activation, SAR result in words” value is reported as “tolerated” and the AC50 is reported as 6.4 µM.
For Cl.NC(=O)C1CCCN(Cc2c[nH]c3ccccc23)C1 (stereo not shown) [NSC 32474], the “AC50 (μM)” value was “inactive”.
Cl.NCCc1c[nH]c2ccccc12 [NSC 522258] was tested, and the “AC50 (μM)” value was “inactive”.
c1ccc2[nH]c(-c3cnc4[nH]ccc4c3)cc2c1 [Compound 26, 5-(1H-Indol-2-yl)-1H-pyrrolo[2,3-b]-pyridine] showed an AC50 of 1.4 µM.
In the case of Oc1ccc(-c2cc3ccccc3[nH]2)cn1 [Compound 21, 5-(1H-Indol-2-yl)-pyridin-2-ol], the “AC50 (CI95%)” value is reported as “inactive”.
For Cc1ccc(NC(C(=O)c2ccccc2)c2ccccc2)cc1 (stereo not shown) [NSC 26933], the “AC50 (μM)” value was “inactive”.
In the case of CN(C)Cc1c(-c2ccccc2)[nH]c2ccccc12 [TH12166], the “OGG1 activation, SAR result in words” value is reported as “inhibited activity”, the “AC50 (μM)” value is reported as “inactive” and the IC50 (inhibition of OGG1) is reported as 15.5 µM.
In the case of Cc1nc(N)[nH]c(=O)c1CCCNc1cccc(C(F)(F)F)c1 [NSC 210448], the “AC50 (μM)” value is reported as “inactive”.
Compound Oc1cncc(-c2cc3ccccc3[nH]2)c1 [Compound 20, 5-(1H-Indol-2-yl)-pyridin-3-ol] has an AC50 of 2.8 µM.
CC1CC2=C(C(=O)O1)C(c1ccccc1)Nc1ccccc1N2 (stereo not shown) [NSC 637579] was tested, and the “AC50 (μM)” value was “inactive”.
With NC(Cc1c(-c2cccnc2)[nH]c2ccccc12)C(=O)O (stereo not shown) [Compound 6, 2-Amino-3-(2-(pyridin-3-yl)-1H-indol-3-yl)-propanoic Acid] the “OGG1 activation, SAR result in words” value was “abolished activity” and the “AC50 (CI95%)” value was “inactive”.
In the case of Cc1ccc2[nH]c(-c3cccnc3)c(CCN)c2c1 [Compound 2, 2-(5-Methyl-2-(pyridin-3-yl)-1H-indol-3-yl)-ethan-1-amine], the “AC50 (CI95%)” value is reported as “inactive”.
NCCc1c(-c2cccnc2)[nH]c2ccccc12 [Compound 1, 2-(2-(Pyridin-3-yl)-1H-indol-3-yl)-ethan-1-amine] was tested, and the AC50 was 4.1 µM.
In the case of NCCc1c(-c2cccnc2)[nH]c2cccc(O)c12 [Compound 33, 3-(2-Aminoethyl)-2-(pyridin-3-yl)-1H-indol-4-ol], the “AC50 (CI95%)” value is reported as “inactive”.
Cc1ccc2[nH]c(-c3cccnc3)cc2c1 [Compound 11, 5-Methyl-2-(pyridin-3-yl)-1H-indole] showed an AC50 of 5.7 µM.
Fc1ccc2[nH]c(-c3cccnc3)cc2c1 [Compound 12, 5-Fluoro-2-(pyridin-3-yl)-1H-indole] showed an AC50 of 1.9 µM.
With CNC1NC(=O)c2ccccc2N1Cc1ccc(F)cc1 (stereo not shown) [NSC 364164] the “AC50 (μM)” value was “inactive”.
For CC(=O)N1C(C(=O)NC2CCCCC2)CSC1c1ccccc1 (stereo not shown) [NSC 669300], the “AC50 (μM)” value was “inactive”.
With OC1(Cc2ccccn2)c2ccccc2CC1c1ccccc1 (stereo not shown) [NSC 147943] the “AC50 (μM)” value was “inactive”.
With NCCc1cncc(-c2cc3cc(O)ccc3[nH]2)c1 [Compound 49, 2-(5-(2-Aminoethyl)-pyridin-3-yl)-1H-indol-5-ol] the “AC50 (CI95%)” value was “inactive”.
NC(=O)C1CCCN(C(=O)Nc2ccccc2F)C1 (stereo not shown) [NSC 213798] was tested, and the “AC50 (μM)” value was “inactive”.
Brc1ccc2[nH]c(-c3cccnc3)cc2c1 [Compound 13, 5-Bromo-2-(pyridin-3-yl)-1H-indole] gave an AC50 of 1 µM.
Fc1cncc(-c2cc3ccccc3[nH]2)c1 [Compound 16, 2-(5-Fluoropyridin-3-yl)-1H-indole] gave an AC50 of 1.4 µM.
In the case of CC(=O)C1CC(C)=CCC12C(=O)Nc1ccccc12 (stereo not shown) [NSC 642717], the “AC50 (μM)” value is reported as “inactive”.
